From ChEMBL document CHEMBL1123909, “New inhibitors of human renin that contain novel Leu-Val replacements” (J Med Chem, 1987) come the findings set out here.

The target of test [1] is T1, Renin (Homo sapiens) (UniProt P00797).
T1 sequence (whole entry): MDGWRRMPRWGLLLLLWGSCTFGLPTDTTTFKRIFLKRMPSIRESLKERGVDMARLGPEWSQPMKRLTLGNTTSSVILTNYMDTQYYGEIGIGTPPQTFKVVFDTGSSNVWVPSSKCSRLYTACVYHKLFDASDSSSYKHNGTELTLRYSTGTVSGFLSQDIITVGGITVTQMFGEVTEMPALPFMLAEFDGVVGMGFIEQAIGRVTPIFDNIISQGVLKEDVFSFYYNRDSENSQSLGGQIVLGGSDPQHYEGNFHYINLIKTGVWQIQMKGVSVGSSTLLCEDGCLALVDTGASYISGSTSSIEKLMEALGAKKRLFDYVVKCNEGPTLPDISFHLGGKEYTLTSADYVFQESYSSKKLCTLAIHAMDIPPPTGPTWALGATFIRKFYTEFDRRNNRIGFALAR
The test can be described thus: The compound was tested for inhibition of human renal renin at the concentration of 10e-7 M.

Another test deals with Pepsin A (Sus scrofa) (UniProt P00791). Description: Inhibition of porcine pepsin. More on the design: concentration or dose not given beside the values. The note with it: concentration not given here.
A further test addresses T2, Renin (Homo sapiens, UniProt P00797).
T2 sequence (P00797 whole entry): T1 sequence (whole entry)
Description: The compound was tested for inhibition of human renal renin at the pH optimum 7.4.

Test [2] has as its target T1, Renin (Homo sapiens). The test can be described thus: The compound was tested for inhibition of human renal renin at the concentration of 10e-5 M (2:1 mixture of S:R diastereomers at the carbon bearing the hydroxyl group.
Test [3] addresses T1, Renin (Homo sapiens). Description: The compound was tested for inhibition of human renal renin at the concentration of 10e-5 M (compound with OH epimer).
The target in test [4] is T1, Renin (Homo sapiens). The test can be described thus: The compound was tested for inhibition of human renal renin at the concentration of 10e-6 M.

Chain of Pepsin A (Sus scrofa) (P00791 60-385 limits assumed): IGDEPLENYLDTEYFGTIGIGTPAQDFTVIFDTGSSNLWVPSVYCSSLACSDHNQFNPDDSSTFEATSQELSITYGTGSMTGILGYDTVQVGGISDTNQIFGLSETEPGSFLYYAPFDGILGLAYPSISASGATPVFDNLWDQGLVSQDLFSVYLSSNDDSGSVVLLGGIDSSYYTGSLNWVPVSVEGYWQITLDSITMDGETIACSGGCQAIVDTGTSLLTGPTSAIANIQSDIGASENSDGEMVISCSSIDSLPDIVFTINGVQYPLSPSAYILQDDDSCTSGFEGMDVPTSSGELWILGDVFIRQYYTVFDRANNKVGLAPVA

The term inhibition denotes the change of the read-out against control, counted positive when it falls. What is called IC50 is the concentration at which inhibition is half-maximal. `CC(C)C[C@@H](NC(=O)[C@H](Cc1c[nH]cn1)NC(=O)[C@H](Cc1ccc2ccccc2c1)NC(=O)OC(C)(C)C)[C@H](O)CSC1CCCCC1`: the inhibition was 85% against Renin (Homo sapiens) [1] and 0% against Pepsin A (Sus scrofa). On Renin, this compound yielded an IC50 of 40 nM.

As to `CC(C)C[C@@H](NC(=O)[C@H](C)NC(=O)[C@H](Cc1ccccc1)NC(=O)OC(C)(C)C)[C@H](O)CCc1ccccc1`, the inhibition on Renin (Homo sapiens) [2] came to 35%.

The compound `CC(C)C[C@H](NC(=O)[C@H](Cc1c[nH]cn1)NC(=O)[C@H](Cc1ccccc1)NC(=O)OC(C)(C)C)[C@@H](O)CSC1CCCCC1` (stereo in doubt; 56) displayed an inhibition at Renin (Homo sapiens) [3] of 95%.

Turning to `CC(C)CC[C@@H](O)[C@H](CC(C)C)NC(=O)[C@H](C)NC(=O)[C@H](Cc1ccccc1)NC(=O)OC(C)(C)C`, the inhibition on Renin (Homo sapiens) [3] came to 16%.

For the compound `CC(C)CC[C@@H](O)[C@@H](CC(C)C)NC(=O)[C@H](Cc1c[nH]cn1)NC(=O)[C@H](Cc1cccc2ccccc12)NC(=O)OC(C)(C)C`, the inhibition against Pepsin A (Sus scrofa) is 6%; on Renin (Homo sapiens) [4], 93%. Also, on Renin, the IC50 was 150 nM.
